# Patent publication US7745657B2, “D-homoandrosta-17-yl carbamate derivatives as selective glucocorticoid receptor ligands” (Merck Sharp & Dohme Corp., priority 2005, dated 2010)
# Biological target: T1, human GR (Homo sapiens, UniProt P04150)
# T1 construct: U937 cells contain an endogenous glucocorticoid receptor (GR); endogenous in cells; host or cells: U937 cells stably transfected with the TNF-alpha promoter / beta-lactamase reporter
# T1 sequence (P04150 1-777): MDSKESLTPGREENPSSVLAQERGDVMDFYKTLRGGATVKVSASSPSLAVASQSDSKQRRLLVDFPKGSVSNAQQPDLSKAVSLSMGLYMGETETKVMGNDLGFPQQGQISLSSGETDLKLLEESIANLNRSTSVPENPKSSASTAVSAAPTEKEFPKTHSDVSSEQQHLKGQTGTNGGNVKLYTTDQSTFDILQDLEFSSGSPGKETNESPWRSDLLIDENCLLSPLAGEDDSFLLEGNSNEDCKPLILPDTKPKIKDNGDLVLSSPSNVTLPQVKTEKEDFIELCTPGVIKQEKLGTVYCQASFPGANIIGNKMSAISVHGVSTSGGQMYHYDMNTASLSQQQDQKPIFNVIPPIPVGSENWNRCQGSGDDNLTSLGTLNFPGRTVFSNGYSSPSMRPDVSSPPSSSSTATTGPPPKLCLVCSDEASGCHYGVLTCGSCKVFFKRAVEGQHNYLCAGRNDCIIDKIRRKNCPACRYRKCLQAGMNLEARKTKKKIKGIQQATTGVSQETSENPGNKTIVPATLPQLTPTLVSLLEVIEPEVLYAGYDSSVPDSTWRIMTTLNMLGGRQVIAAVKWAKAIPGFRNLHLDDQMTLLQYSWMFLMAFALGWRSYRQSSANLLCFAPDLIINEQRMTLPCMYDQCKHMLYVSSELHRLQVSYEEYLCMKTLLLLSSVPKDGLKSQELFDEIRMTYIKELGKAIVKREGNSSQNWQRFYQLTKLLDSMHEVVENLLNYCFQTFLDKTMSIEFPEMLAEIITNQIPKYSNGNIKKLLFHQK
# Assay: Transrepression assay, TNFα-β-lactamase reporter gene in U937 cells
# Format: cell-based
# Conditions: U-937, PMA/LPS stimulated, activity repressed by 100 nM dexamethasone alone set as 100%, read-out: maximal activity
# From the text: This assay assesses the ability of test compounds to control transcription from the TNFα-β-lactamase reporter gene in U937 cells, a human myelomonocytic leukemia cell line that naturally expresses the human GR. The assay measures compound dependent-repression of the TNFα promoter linked to a reporter gene.
# The human U937 cells that had been stablely transfected with the TNF-αpromoter driving β-lactamase are used for this assay. U937 cells contain an endogenous glucocorticoid receptor (GR). Cells are maintained in RPMI 1640 Growth medium (Gibco Cat#11875-093) containing 25 mM HEPES, 10% FBS, 2 mM L-Glutamine, 1 mM Sodium pyruvate, 25 μg/ml Gentamicin (Gibco Cat#15710-064), 1:1000 2-Mercaptoethanol (Gibco Cat#21985-023) and 0.8 mg/ml G418 (Gibco Cat#10131-027). The density of the cells in the flask needs to be about 1×10^6−3×10^6/ml at the time of harvest. Usually, the cells are split to 1.2˜1.4×10^5/ml (1:10) 3 days prior to the assay. 50,000 cells/well are plated in 96 well black-walled plates the day of assay. Test compounds are added 10 μL/well, and cells are incubated at 37° C. for 30˜45 min. For assaying compounds, first dilute 1:10 in DMSO to make 1 mM, then further dilute 1:100 in medium to make 10× stock prior to adding to the cells. Add 50 ng/ml PMA (Sigma, cat# P8139) 10 μL/well to a final concentration 5 ng/ml, and 1 μg/ml LPS (Sigma, cat# L4130) 10 μL/well to a final concentration 100 ng/ml. Incubate cells at 37° C. overnight for ˜18 hr. PMA is stored frozen as 100 μg/ml stock in DMSO. Dilute 1:10 in DMSO for a working stock of 10 μg/ml and store at −20 C. For assaying, dilute the 10 μg/ml working stock 1:200 in medium to make a 10× solution (50 ng/ml). Store frozen LPS at 1 mg/ml in PBS, dilute 1:1000 in medium to make 10× (1 μg/ml) for the assay. Add 6× loading buffer (CCF2-AM) 20 μL/well, and incubate at room temperature for 70˜90 min. […] The activity repressed by 100 nM dexamethasone alone is set as 100% activity.
row,SMILES,Emax
1,"CC(=O)OCC1(OC(=O)NC23CC4CC(CC(C4)C2)C3)C(=O)C2(C)CC(OC(=O)C(F)(F)F)C3(F)C(CCC4=CC(=O)C=CC43C)C2CC1C [Example 5, (11β,16β,17α)-9-fluoro-11-trifluoroacetoxy-16-methyl-3,17a-dioxo-17-[(acety1oxy)methy1]-D-homoandrosta-1,4-dien-17-yl-(1-adamantyl)carbamate]",> 5%
2,"C[C@H]1CC2C3CCC4=CC(=O)C=C[C@]4(C)[C@@]3(F)[C@@H](O)C[C@]2(C)C(=O)[C@]1(CO)OC(=O)NC12CC3CC(CC(C3)C1)C2 (stereo partly drawn) [Example 1, (11β,16β,17α)-9-fluoro-11-hydroxy-16-methyl-3,17a-dioxo-17-(hydroxymethyl)-d-homoandrosta-1,4-dien-17-yl-(1-adamantyl)carbamate]",> 5%
3,"CC1CC2C3CCC4=CC(=O)C=CC4(C)C3(F)C(OC(=O)C(F)(F)F)CC2(C)C(=O)C1(CO)OC(=O)NC12CC3CC(CC(C3)C1)C2 [Example 7, (11β,16β,17α)-9-fluoro-11-trifluoroacetoxy-16-methyl-3,17a-dioxo-17-(hydroxymethyl)-D-homoandrostra-1,4-dien-17-yl-(1-adamantyl)carbamate]",> 5%
4,"CCCC(C)NC(=O)OC1(CO)C(=O)C2(C)CC(O)C3(F)C(CCC4=CC(=O)C=CC43C)C2CC1C [Example 2, (11β,16β,17α)-9-fluoro-11-hydroxy-16-methyl-3,17a-dioxo-17-(hydroxymethyl)-D-homoandrosta-1,4-dien-17-yl-(2-pentyl)carbamate]",> 5%

# Other lines, results leading:
row,Emax,SMILES
1,> 5%,"CCCC(C)CNC(=O)OC1(CO)C(=O)C2(C)CC(O)C3(F)C(CCC4=CC(=O)C=CC43C)C2CC1C [Example 3, (11β,16β,17α)-9-fluoro-11-hydroxy-16-methyl-3,17a-dioxo-17-(hydroxymethyl)-D-homoandrosta-1,4-dien-17-yl-(2-methyl-pentyl)carbamate]"
2,> 5%,"CC1CC2C3CCC4=CC(=O)C=CC4(C)C3(F)C(O)CC2(C)C(=O)C1(CO)OC(=O)NC1CCCCC1 [Example 9, (11β,16β,17α)-9-fluoro-11-hydroxy-16-methyl-3,17a-dioxo-17-(hydroxymethyl)-D-homoandrosta-1,4-dien-17-yl-(cyclohexyl)carbamate]"
3,> 5%,"CC(=O)OCC1(OC(=O)NC23CC4CC(CC(C4)C2)C3)C(=O)C2(C)CC(O)C3(F)C(CCC4=CC(=O)C=CC43C)C2CC1C [Example 6, (11β,16β,17α)-9-fluoro-11-hydroxy-16-methyl-3,17a-dioxo-17-[(acetyloxy)methyl]-D-homoandrosta-1,4-dien-17-yl-(1-adamantyl)carbamate]"
